Results as given in ChEMBL document CHEMBL1201862, “PubChem BioAssay data set” (2004).
Activity calls are given as the source filed them. Rule as the data show it: actives have a measured IC50 and inactives only a lower limit.

Target: Envelope glycoprotein gp160 (Human immunodeficiency virus 1, UniProt Q6QLK5)
Experiment: cell-free HIV fusion peptide-binding blockers – biochemical, uHTS, fluorescence dequenching, […] (AID 1986)

Sequence of Envelope glycoprotein gp160 (Q6QLK5 whole entry, the tested form may be a part): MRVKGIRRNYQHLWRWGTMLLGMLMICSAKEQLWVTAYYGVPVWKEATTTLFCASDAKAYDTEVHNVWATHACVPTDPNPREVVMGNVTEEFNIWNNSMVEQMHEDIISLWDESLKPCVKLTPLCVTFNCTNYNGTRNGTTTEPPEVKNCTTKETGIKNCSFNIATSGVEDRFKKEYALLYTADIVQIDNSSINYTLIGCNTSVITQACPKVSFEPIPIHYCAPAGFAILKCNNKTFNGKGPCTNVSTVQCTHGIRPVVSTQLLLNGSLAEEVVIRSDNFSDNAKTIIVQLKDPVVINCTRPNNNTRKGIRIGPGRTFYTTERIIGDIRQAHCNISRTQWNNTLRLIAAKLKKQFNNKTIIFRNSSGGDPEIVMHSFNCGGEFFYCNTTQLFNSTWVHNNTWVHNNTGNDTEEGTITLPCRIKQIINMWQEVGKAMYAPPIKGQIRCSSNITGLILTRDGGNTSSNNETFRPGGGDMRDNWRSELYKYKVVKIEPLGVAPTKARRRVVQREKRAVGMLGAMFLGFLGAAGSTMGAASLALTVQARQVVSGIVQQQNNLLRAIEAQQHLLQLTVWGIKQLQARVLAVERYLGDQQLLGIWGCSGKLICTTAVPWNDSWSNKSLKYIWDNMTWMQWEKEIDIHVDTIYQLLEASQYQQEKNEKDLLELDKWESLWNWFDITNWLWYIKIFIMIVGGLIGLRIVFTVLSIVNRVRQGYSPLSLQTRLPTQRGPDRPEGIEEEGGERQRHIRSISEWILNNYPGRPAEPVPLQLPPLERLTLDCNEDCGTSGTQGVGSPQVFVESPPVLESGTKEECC

In the case of `O=C(O)CSc1cc(C(=O)c2ccccc2O)cn2c(=O)c3c4c(sc3nc12)CCCC4`, the IC50 is reported as 20.7 µM (active).
